Drawing on ChEMBL document CHEMBL3243925, “Disteroidyl ethers. 1. Synthesis and oral long-lasting uterotrophic activity of 1,3,5(10)-estratrien-17-yl enol ethers of 3-keto steroids” (1977), this text covers Activity for 16 compounds.

Activity calls are given as the source filed them. No cut-off for these calls is given here.

The subject of assay [1] is Rattus norvegicus. As to the kind of experiment: Uterotrophic activity in spayed Wistar rat assessed as autopsies by measuring uterus weight at 0.1 umol, po after 1 week (reference value: 15.1 +/- 0.51 mg). The class given is functional.
Assay [2] concerns Rattus norvegicus. As to the kind of experiment: Uterotrophic activity in spayed Wistar rat assessed as autopsies by measuring uterus weight at 0.1 umol, po after 2 weeks (reference value: 15.9 +/- 0.50 mg). The assay is classed as functional.

As to `C[C@]12CC[C@@H]3c4ccc(O)cc4CC[C@H]3[C@@H]1CC[C@@H]2OC1=CC2=CC[C@@H]3[C@H](CC[C@]4(C)[C@@H](O)CC[C@@H]34)[C@H]2CC1`, the Activity is on record as 59.9 mg in assay [1] and 41.6 mg in assay [2].

With `C#C[C@]1(O)CC[C@H]2[C@@H]3CCc4cc(OC5CCCC5)ccc4[C@H]3CC[C@@]21C` [QUINESTROL], the Activity was determined as 39 mg in assay [1] and 29 mg in assay [2].

For `C[C@]12CC[C@@H]3c4ccc(O)cc4CC[C@H]3[C@@H]1CC[C@@H]2OC1=CC2=CC[C@@H]3[C@H](CC[C@]4(C)C(=O)CC[C@@H]34)[C@@]2(C)CC1`, the Activity is given as 56.9 mg in assay [1] and 38.9 mg in assay [2].

Regarding `C#C[C@]1(OC(=O)CCCCCC)CC[C@H]2[C@@H]3CC=C4C=C(O[C@H]5CC[C@H]6[C@@H]7CCc8cc(O)ccc8[C@H]7CC[C@]56C)CC[C@@H]4[C@H]3CC[C@@]21C`, the Activity in assay [1] stood at 33.8 mg; in assay [2] it was 22.1 mg.

With `CC(=O)O[C@H]1CC[C@H]2[C@@H]3CC[C@H]4C=C(O[C@H]5CC[C@H]6[C@@H]7CCc8cc(OC(=O)c9ccccc9)ccc8[C@H]7CC[C@]56C)C=C[C@]4(C)[C@H]3CC[C@]12C`, the results for the Activity in assay [1] and in assay [2] were 21.3 mg and 20.1 mg, respectively.

For the compound `CC(=O)O[C@@]1(C)CC[C@H]2[C@@H]3CC=C4C=C(O[C@H]5CC[C@H]6[C@@H]7CCc8cc(OC(=O)c9ccccc9)ccc8[C@H]7CC[C@]56C)CC[C@]4(C)[C@H]3CC[C@@]21C`, the Activity in assay [1] is 26.4 mg; in assay [2], 21.5 mg.

As to `C#C[C@]1(OC(C)=O)CC[C@H]2[C@@H]3CC=C4C=C(O[C@H]5CC[C@H]6[C@@H]7CCc8cc(O)ccc8[C@H]7CC[C@]56C)CC[C@@H]4[C@H]3CC[C@@]21C`, the results for the Activity in assay [1] and in assay [2] were 38.1 mg and 26.7 mg, respectively.

Consider `C[C@]12CC[C@H]3[C@@H](CC=C4C=C(O[C@H]5CC[C@H]6[C@@H]7CCc8cc(OC9CCCC9)ccc8[C@H]7CC[C@]56C)CC[C@@H]43)[C@@H]1CC[C@@H]2OC(=O)CCC(=O)O`, for which the Activity is listed as 28.9 mg in assay [1] and 31.8 mg in assay [2].

Regarding `C#C[C@]1(O)CC[C@H]2[C@@H]3CC=C4C=C(O[C@H]5CC[C@H]6[C@@H]7CCc8cc(O)ccc8[C@H]7CC[C@]56C)CC[C@@H]4[C@H]3CC[C@@]21C`, the results for the Activity in assay [1] and in assay [2] were 40.5 mg and 23.3 mg, respectively.

For the compound `CCC(=O)O[C@H]1CC[C@H]2[C@@H]3CC[C@H]4CC(O[C@H]5CC[C@H]6[C@@H]7CCc8cc(OC(=O)c9ccccc9)ccc8[C@H]7CC[C@]56C)=CC[C@]4(C)[C@H]3CC[C@]12C`, the Activity in assay [1] is on record as 23.3 mg; in assay [2], 21.3 mg.

Consider `C#C[C@]1(OC(C)=O)CC[C@H]2[C@@H]3CC=C4C=C(O[C@H]5CC[C@H]6[C@@H]7CCc8cc(OC(=O)CCCCCC)ccc8[C@H]7CC[C@]56C)CC[C@@H]4[C@H]3CC[C@@]21C`, for which the Activity amounted to 29.5 mg in assay [1] and 18.9 mg in assay [2].

Take `CCC(=O)O[C@H]1CC[C@H]2[C@@H]3CC[C@H]4CC(O[C@H]5CC[C@H]6[C@@H]7CCc8cc(OC(=O)c9ccccc9)ccc8[C@H]7CC[C@]56C)CC[C@]4(C)[C@H]3CC[C@]12C` (some centres not stated): the result in assay [1] and in assay [2] was inactive.

On to `CC(=O)[C@H]1CC[C@H]2[C@@H]3CC=C4C=C(O[C@H]5CC[C@H]6[C@@H]7CCc8cc(OC(=O)c9ccccc9)ccc8[C@H]7CC[C@]56C)CC[C@]4(C)[C@H]3CC[C@]12C`, for which the Activity is given as 26.3 mg in assay [1] and 20.6 mg in assay [2].

Consider `C#C[C@]1(OC(C)=O)CC[C@H]2[C@@H]3CC=C4C=C(O[C@H]5CC[C@H]6[C@@H]7CCc8cc(OC(C)=O)ccc8[C@H]7CC[C@]56C)CC[C@@H]4[C@H]3CC[C@@]21C`, for which the values for the Activity in assay [1] and in assay [2] were 36.6 mg and 25.4 mg, respectively.

In the case of `C[C@]12CC[C@@H]3c4ccc(OC(=O)CCC(=O)O)cc4CC[C@H]3[C@@H]1CC[C@@H]2OC1=CC2=CC[C@@H]3[C@H](CC[C@]4(C)C(=O)CC[C@@H]34)[C@H]2CC1`, the Activity in assay [1] is recorded as 60.7 mg; in assay [2], 36.8 mg.

As to `C#C[C@]1(OC(=O)CCCCCC)CC[C@H]2[C@@H]3CC=C4C=C(O[C@H]5CC[C@H]6[C@@H]7CCc8cc(OC(=O)c9ccccc9)ccc8[C@H]7CC[C@]56C)CC[C@@H]4[C@H]3CC[C@@]21C`, the Activity in assay [1] is reported as 35.6 mg; in assay [2] it was 24.2 mg.
